Measurements: ChEMBL document CHEMBL5543168, “Discovery of Urea Derivatives of Celastrol as Selective Peroxiredoxin 1 Inhibitors against Colorectal Cancer Cells” (J Med Chem, 2024)
pIC50, pKd: −log10 of the molar value. Active and inactive are the calls of the source. The calls are words filed in the database; no cut-off is given here.

What was measured:
SW-620 [1] = experiment: Induction of cell cycle arrest at S phase in human SW620 cells at 0.5 uM incubated for 24 hrs by PI staining based flow cytometry (reference value: 59.9 %); type: functional
[2] = Clearance in mouse at 2 mg/kg, iv measured for 24 hrs by LC-MS/MS analysis; type: ADME, organism-based; conditions: in vivo
SW-620 [3] = experiment: Induction of mitochondrial membrane potential depolarization in human SW620 cells assessed as JC-1-stained red cells upto 2 uM incubated for 48 hrs by flow cytometry (reference value: 89.8 %); type: functional; conditions: up to 2 µM
SW-620 [4] = experiment: Induction of cell cycle arrest at G1 phase in human SW620 cells at 2 uM incubated for 24 hrs by PI staining based flow cytometry (reference value: 32.4 %); type: functional
[5] = Antiproliferative activity against mouse […] cells; type: toxicity, cell-based
[6] = AUC (0 to infinity) in mouse at 2 mg/kg, iv measured for 24 hrs by LC-MS/MS analysis; type: ADME, organism-based; conditions: in vivo
SW-620 [7] = experiment: Induction of apoptosis in human SW620 cells assessed as total apoptotic cells at 1 uM incubated for 48 hrs by Annexin V-FITC/PI staining based flow cytometry relative to control; type: functional
SW-620 [8] = experiment: Induction of apoptosis in human SW620 cells assessed as decrease in Bcl-2 level incubated for 48 hrs by Western blot analysis; type: functional, cell-based; conditions: dose 0.25-2 µM
[9] = Acute toxicity in C57BL/[…] 6J mouse assessed as pathological change in liver at 20 mg/kg, ip measured for 2 weeks by H and E staining based analysis; type: organism-based; conditions: in vivo, 336 h
SW-620 [10] = experiment: Induction of cell cycle arrest at G2 phase in human SW620 cells at 2 uM incubated for 24 hrs by PI staining based flow cytometry (reference value: 6.77 %); type: functional
SW-620 [11] = experiment: Antitumor activity against human SW620 cells xenografted in BALB/c nude mouse assessed as decrease in Ki-67 level at 2 mg/kg, ip qd for 16 days by IHC analysis; type: functional, organism-based; conditions: time 16.0 day
SW-620 [12] = experiment: Induction of apoptosis in human SW620 cells assessed as decrease in Bcl-xl level incubated for 48 hrs by Western blot analysis; type: functional, cell-based; conditions: dose 0.25-2 µM
[13] = Toxicity in BALB/c nude mouse xenografted with human SW620 cells assessed as body weight loss at 2 mg/kg, ip qd for 16 days; type: organism-based, SW-620; conditions: in vivo, 384 h, time 16 day
[14] = Acute toxicity in C57BL/[…] 6J mouse assessed as animal death at 20 mg/kg, ip measured for 2 weeks; type: organism-based; conditions: in vivo, 336 h
[15] = biological target: T1, Thioredoxin-dependent peroxide reductase, mitochondrial (Homo sapiens, UniProt P30048); experiment: Inhibition of recombinant PRDX3 (unknown origin) using H2O2 as substrate preincubated for 0.5 hrs followed by substrate addition by TRX-TrxR-NADPH coupling assay
T1 sequence (P30048 whole entry): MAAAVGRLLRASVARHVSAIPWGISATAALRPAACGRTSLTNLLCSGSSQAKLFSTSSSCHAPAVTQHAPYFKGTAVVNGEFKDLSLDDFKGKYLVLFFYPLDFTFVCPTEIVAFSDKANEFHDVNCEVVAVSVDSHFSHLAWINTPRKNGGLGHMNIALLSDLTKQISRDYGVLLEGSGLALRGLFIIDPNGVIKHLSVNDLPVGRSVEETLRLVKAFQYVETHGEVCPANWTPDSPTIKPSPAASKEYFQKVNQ

SW-620 [16] = experiment: Induction of mitochondrial membrane potential depolarization in human SW620 cells assessed as increase in JC-1-stained green cells at 0.5 to 2 uM incubated for 48 hrs by flow cytometry; type: functional, cell-based; conditions: dose 0.5-2 µM
[17] = Selectivity ratio of IC50 for HEK293T cells to IC50 for human SW620 cells; type: functional
SW-620 [18] = experiment: Antitumor activity against human SW620 cells xenografted in BALB/c nude mouse assessed as nuclear pyknosis in tumor cells at 2 mg/kg, ip qd for 16 days by H and E staining based analysis; type: functional, organism-based; conditions: time 16.0 day
[19] = Selectivity ratio of IC50 for HEK293T cells to IC50 for human HCT-116 cells; type: functional
SW-620 [20] = experiment: Antitumor activity against human SW620 cells xenografted in BALB/c nude mouse assessed as decrease in tumor weight at 2 mg/kg, ip qd for 16 days; type: functional, organism-based; conditions: time 16.0 day
SW-620 [21] = experiment: Induction of cell cycle arrest at G2/M phase in human SW620 cells at 0.5 to 2 uM incubated for 48 hrs by PI staining based flow cytometry relative to control; type: functional; conditions: dose 0.5-2 µM
SW-620 [22] = experiment: cells; conditions: Homo sapiens, SW-620, 48 h, read-out: Activity
Description: Induction of apoptosis in human SW620 cells assessed as viable cells at 1 uM incubated for 48 hrs by Annexin V-FITC/PI staining based flow cytometry (Rvb = 90.7 %)

[23] = Selectivity ratio of IC50 for human LX2 cells to IC50 for human HCT-116 cells; type: functional
SW-620 [24] = experiment: Induction of DNA damage in human SW620 cells assessed as increase in gamma-H2AX level incubated for 48 hrs by Western blot analysis; type: functional, cell-based; conditions: dose 0.25-2 µM
[25] = Selectivity ratio of IC50 for mouse […] cells to IC50 for human HCT-116 cells; type: functional
[26] = Antiproliferative activity against HEK293T cells; type: toxicity, cell-based, HEK-293T; conditions: human
Peroxiredoxin-4 = biological target: T2, Peroxiredoxin-4 (Homo sapiens, UniProt Q13162); experiment: Inhibition of recombinant PRDX4 (unknown origin) using H2O2 as substrate preincubated for 0.5 hrs followed by substrate addition by TRX-TrxR-NADPH coupling assay
T2 sequence (Q13162 whole entry): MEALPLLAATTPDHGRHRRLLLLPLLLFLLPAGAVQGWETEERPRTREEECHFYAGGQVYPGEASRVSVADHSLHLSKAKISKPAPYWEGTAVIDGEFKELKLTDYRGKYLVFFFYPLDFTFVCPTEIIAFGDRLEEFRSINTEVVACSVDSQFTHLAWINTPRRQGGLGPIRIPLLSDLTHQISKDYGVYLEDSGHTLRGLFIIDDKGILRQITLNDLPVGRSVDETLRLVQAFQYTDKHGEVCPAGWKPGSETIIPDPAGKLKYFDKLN

[27] = Selectivity ratio of IC50 for human LX2 cells to IC50 for human SW620 cells; type: functional
Peroxiredoxin-1 = biological target: T3, Peroxiredoxin-1 (Homo sapiens, UniProt Q06830); experiment: Binding affinity to CM5 sensor chip-immobilized recombinant PRDX1 (unknown origin) assessed as dissociation constant by SPR analysis
T3 sequence (Q06830 whole entry): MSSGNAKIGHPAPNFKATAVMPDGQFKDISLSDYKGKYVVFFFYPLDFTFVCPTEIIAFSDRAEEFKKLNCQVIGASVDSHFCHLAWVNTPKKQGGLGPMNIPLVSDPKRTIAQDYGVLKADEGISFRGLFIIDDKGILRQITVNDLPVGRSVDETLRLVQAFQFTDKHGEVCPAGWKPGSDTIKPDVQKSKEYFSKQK

SW-620 [28] = experiment: Induction of mitochondrial membrane potential depolarization in human SW620 cells assessed as reduction in red fluorescence incubated for 48 hrs by JC1-staining based CLSM analysis; type: functional, cell-based; conditions: dose 0.5-2 µM
SW-620 [29] = experiment: Induction of cell cycle arrest at G1 phase in human SW620 cells at 0.5 uM incubated for 24 hrs by PI staining based flow cytometry (reference value: 32.4 %); type: functional
SW-620 [30] = experiment: Induction of mitochondrial membrane potential depolarization in human SW620 cells assessed as change in morphological characteristics at 0.5 to 2 uM incubated for 48 hrs by bright-field microscopy; type: functional, cell-based; conditions: dose 0.5-2 µM

COC(=O)C1(NC(=O)N[C@]2(C)CC[C@]3(C)CC[C@]4(C)C5=CC=C6C(=CC(=O)C(O)=C6C)[C@]5(C)CC[C@@]4(C)[C@@H]3C2)CCC1 gave an Activity (SW-620 [1]) of 57.3%, a clearance [2] of 83.1 mL/min/kg and an Activity (SW-620 [3]) of 39.2%. The Activity (SW-620 [4]) was 29.2%, the pIC50 [5] was about 6.00 and the AUC(0-inf) [6] was 403 ng·h/mL. The Activity (SW-620 [7]) was 19%, the Activity (SW-620 [8]) was “Dose-Dependent Effect” and the Activity [9] was “Non-Toxic”. The Activity (SW-620 [10]) was 17.4%, the Activity (SW-620 [11]) was “Active” and the Activity (SW-620 [12]) was “Dose-Dependent Effect”. The Activity [13] was “Non-Toxic”, the Activity [14] was “Non-Toxic” and the pIC50 [15] was under 4.30. The Activity (SW-620 [16]) was “Active”, the Selectivity ratio [17] was 2 and the Activity (SW-620 [18]) was “Active”. The Selectivity ratio [19] was 2, the Activity (SW-620 [20]) was “Active” and the Activity (SW-620 [21]) was 7.1%. The viability at 1 µM (SW-620 [22]) was 78.8%, the Selectivity ratio [23] was 2 and the Activity (SW-620 [24]) was “Dose-Dependent Effect”. For the same compound, the Selectivity ratio [25] was 2, the pIC50 [26] was about 6.00 and the pIC50 (Peroxiredoxin-4) was under 4.30. The Selectivity ratio [27] was 2, the pKd (Peroxiredoxin-1) was 6.43 and the Activity (SW-620 [28]) was “Dose-Dependent Effect”. For the same compound, the Activity (SW-620 [29]) was 33.5% and the Activity (SW-620 [30]) was “Active”.
